The record followed here is ChEMBL document CHEMBL1132901, “Synthesis and structure-activity relationships of quaternary ammonium cephalosporins with 3-pyrazolylpyridinium derivatives” (2000).

Values after ≈ are worked out from the molar mass of the structure shown.

The MIC is the smallest concentration in the dilution series that meets the test's criterion for growth inhibition.

The test system of experiment [1] is Enterobacter cloacae. Nature of the experiment: In vitro antimicrobial activity against Enterobacter 1321 E. The experiment is classed as functional.
In experiment [2] the test system is Escherichia coli. Nature of the experiment: In vitro antimicrobial activity against Escherichia coli 055. The experiment is classed as functional.
For experiment [3], the system named is Escherichia coli. Kind of experiment: In vitro antimicrobial activity against Escherichia coli 1507E. The experiment is classed as functional.
Experiment [4] concerns Escherichia coli. Nature of the experiment: In vitro antimicrobial activity against Escherichia coli DC 0. It is filed as functional.
The subject of experiment [5] is Escherichia coli. Nature of the experiment: In vitro antimicrobial activity against Escherichia coli DC 2. The experiment is classed as functional.
The subject of experiment [6] is Escherichia coli. Nature of the experiment: In vitro antimicrobial activity against Escherichia coli TEM. It is filed as functional.
In experiment [7] the test system is Enterobacter cloacae. Kind of experiment: In vitro antimicrobial activity against Enterobacter cloacae P99. It is filed as functional.
Another experiment has as its system Klebsiella oxytoca. Kind of experiment: In vitro antimicrobial activity against Klebsiella oxytoca 1082. It is filed as functional.
In another experiment the test system is Klebsiella aerogenes. Nature of the experiment: In vitro antimicrobial activity against Klebsiella aerogenes 1522 E. It is filed as functional.
The subject of experiment [8] is Pseudomonas aeruginosa. Kind of experiment: In vitro antimicrobial activity against Pseudomonas aeruginosa 1771. It is filed as functional.
Experiment [9] has as its system Pseudomonas aeruginosa. Kind of experiment: In vitro antimicrobial activity against Pseudomonas aeruginosa 1771 M. It is filed as functional.
For experiment [10], the system named is Pseudomonas aeruginosa. Nature of the experiment: In vitro antimicrobial activity against Pseudomonas aeruginosa 9027. The experiment is classed as functional.
For a further experiment, the system named is Salmonella typhimurium. Kind of experiment: In vitro antimicrobial activity against Salmonella Typhimurium. The experiment is classed as functional, Salmonella enterica subsp. enterica serovar Typhimurium. The settings on record: Salmonella enterica.
The test system of experiment [11] is Streptococcus pyogenes. Nature of the experiment: Compound has been evaluated for in vitro antimicrobial activity against Streptococcus pyogenes A 308. It is filed as functional.
Experiment [12] has as its system Streptococcus pyogenes. Kind of experiment: In vitro antimicrobial activity against Streptococcus pyogenes 77A. It is filed as functional.
In experiment [13] the test system is Streptococcus pyogenes. Kind of experiment: In vitro antimicrobial activity against Streptococcus pyogenes SG 511. It is filed as functional.
For experiment [14], the system named is Staphylococcus aureus. Nature of the experiment: In vitro antimicrobial activity against Methicillin resistant Staphylococcus aureus (MRSA). It is filed as functional.
Experiment [15] has as its system Staphylococcus aureus. Nature of the experiment: In vitro antimicrobial activity against Staphylococcus aureus 285. The experiment is classed as functional.
Experiment [16] concerns Staphylococcus aureus. Kind of experiment: In vitro antimicrobial activity against Staphylococcus aureus 503. The experiment is classed as functional.
In another experiment the test system is Enterococcus faecium. Kind of experiment: In vitro antimicrobial activity against Streptococcus faecium MD 8b. The experiment is classed as functional.
Experiment [17] has as its system Pseudomonas aeruginosa. Nature of the experiment: In vitro antimicrobial activity against Pseudomonas aeruginosa 1592 E. It is filed as functional.
The subject of experiment [18] is Streptococcus pyogenes. Kind of experiment: In vitro antimicrobial activity against Streptococcus pyogenes A 308. It is filed as functional.

Turning to `CO/N=C(/C(=O)NC1C(=O)N2C(C(=O)[O-])=C(C[n+]3cccc4c3CCC4)CSC12)c1csc(N)n1` (stereo not drawn), the MIC amounted to 0.013 µg/mL (≈ 0.0253 µM) against Enterobacter cloacae [1]; 0.025 µg/mL (≈ 0.0486 µM) with Escherichia coli [2]; 0.025 µg/mL (≈ 0.0486 µM) in the experiment with Escherichia coli [3]; 0.013 µg/mL (≈ 0.0253 µM) in the experiment with Escherichia coli [4]; 0.013 µg/mL (≈ 0.0253 µM) against Escherichia coli [5]; 0.049 µg/mL (≈ 0.0952 µM) in the experiment on Escherichia coli [6]. In addition, the minimal inhibitory concentration (MIC) in the experiment on Enterobacter cloacae [7] was determined as 3.12 µg/mL (≈ 6.07 µM); against Klebsiella oxytoca it was 1.56 µg/mL (≈ 3.04 µM); against Klebsiella aerogenes, 0.025 µg/mL (≈ 0.0486 µM); with Pseudomonas aeruginosa [8], 0.781 µg/mL (≈ 1.52 µM); against Pseudomonas aeruginosa [9] it was 0.195 µg/mL (≈ 0.379 µM); in the experiment on Pseudomonas aeruginosa [10] it was 3.12 µg/mL (≈ 6.07 µM). The MIC against Salmonella typhimurium is 0.025 µg/mL (≈ 0.0486 µM); in the experiment with Streptococcus pyogenes [11], 0.007 µg/mL (≈ 0.0136 µM); with Streptococcus pyogenes [12], 0.007 µg/mL (≈ 0.0136 µM); with Streptococcus pyogenes [13] it was 0.391 µg/mL (≈ 0.76 µM); in the experiment with Staphylococcus aureus [14], 25 µg/mL (≈ 48.6 µM); against Staphylococcus aureus [15], 0.781 µg/mL (≈ 1.52 µM). Besides, the values for the MIC against Staphylococcus aureus [16], in the experiment on Enterococcus faecium and against Pseudomonas aeruginosa [17] were 0.098 µg/mL (≈ 0.19 µM), 1.56 µg/mL (≈ 3.04 µM) and 1.56 µg/mL (≈ 3.04 µM), respectively.

In the case of `CO/N=C(/C(=O)N[C@@H]1C(=O)N2C(C(=O)[O-])=C(C[n+]3cccc(-c4cc(N)[nH]n4)c3)CS[C@H]12)c1csc(N)n1`, the MIC in the experiment with Enterobacter cloacae [1] worked out at 0.013 µg/mL (≈ 0.0234 µM); against Escherichia coli [2], 0.013 µg/mL (≈ 0.0234 µM); in the experiment with Escherichia coli [3] it was 0.025 µg/mL (≈ 0.045 µM); with Escherichia coli [4], 0.025 µg/mL (≈ 0.045 µM); in the experiment on Escherichia coli [5], 0.013 µg/mL (≈ 0.0234 µM); in the experiment on Escherichia coli [6], 0.049 µg/mL (≈ 0.0882 µM). Further, the minimal inhibitory concentration (MIC) against Enterobacter cloacae [7] worked out at 50 µg/mL (≈ 90 µM); in the experiment with Klebsiella oxytoca, 1.56 µg/mL (≈ 2.81 µM); against Klebsiella aerogenes, 0.025 µg/mL (≈ 0.045 µM); in the experiment on Pseudomonas aeruginosa [8], 0.781 µg/mL (≈ 1.41 µM); in the experiment on Pseudomonas aeruginosa [9], 0.195 µg/mL (≈ 0.351 µM); in the experiment with Pseudomonas aeruginosa [10], 3.12 µg/mL (≈ 5.62 µM). The minimum inhibitory concentration (MIC) was determined as 0.049 µg/mL (≈ 0.0882 µM) with Salmonella typhimurium; 0.007 µg/mL (≈ 0.0126 µM) against Streptococcus pyogenes [12]; 0.007 µg/mL (≈ 0.0126 µM) with Streptococcus pyogenes [18]; 0.391 µg/mL (≈ 0.704 µM) in the experiment on Streptococcus pyogenes [13]; 25 µg/mL (≈ 45 µM) against Staphylococcus aureus [14]; 0.781 µg/mL (≈ 1.41 µM) against Staphylococcus aureus [15]. For the same compound, the values for the MIC with Staphylococcus aureus [16], with Enterococcus faecium and against Pseudomonas aeruginosa [17] were 0.195 µg/mL (≈ 0.351 µM), 1.56 µg/mL (≈ 2.81 µM) and 1.56 µg/mL (≈ 2.81 µM), respectively.

As for `CC(C)(O/N=C(\C(=O)N[C@@H]1C(=O)N2C(C(=O)[O-])=C(C[n+]3ccccc3)CS[C@H]12)c1csc(N)n1)C(=O)O` [CEFTAZIDIME], the MIC was determined as 0.025 µg/mL (≈ 0.0457 µM) against Enterobacter cloacae [1]; 0.098 µg/mL (≈ 0.179 µM) in the experiment with Escherichia coli [2]; 0.195 µg/mL (≈ 0.357 µM) in the experiment with Escherichia coli [3]; 0.098 µg/mL (≈ 0.179 µM) against Escherichia coli [4]; 0.098 µg/mL (≈ 0.179 µM) against Escherichia coli [5]; 0.195 µg/mL (≈ 0.357 µM) against Escherichia coli [6]. Also, the MIC with Enterobacter cloacae [7] is > 100 µg/mL; in the experiment on Klebsiella oxytoca it was 0.391 µg/mL (≈ 0.715 µM); against Klebsiella aerogenes, 0.098 µg/mL (≈ 0.179 µM); against Pseudomonas aeruginosa [8], 0.781 µg/mL (≈ 1.43 µM); against Pseudomonas aeruginosa [9], 0.195 µg/mL (≈ 0.357 µM); against Pseudomonas aeruginosa [10], 3.12 µg/mL (≈ 5.72 µM). The minimum inhibitory concentration (MIC) is 0.195 µg/mL (≈ 0.357 µM) in the experiment with Salmonella typhimurium; 0.049 µg/mL (≈ 0.0896 µM) against Streptococcus pyogenes [12]; 0.098 µg/mL (≈ 0.179 µM) with Streptococcus pyogenes [18]; 12.5 µg/mL (≈ 22.9 µM) against Streptococcus pyogenes [13]; > 100 µg/mL with Staphylococcus aureus [14]; 12.5 µg/mL (≈ 22.9 µM) in the experiment on Staphylococcus aureus [15]. The minimal inhibitory concentration (MIC) in the experiment with Staphylococcus aureus [16] was 3.12 µg/mL (≈ 5.72 µM); against Enterococcus faecium it was > 100 µg/mL; in the experiment on Pseudomonas aeruginosa [17] it was 1.56 µg/mL (≈ 2.86 µM).
